Results: ChEMBL document CHEMBL1140900, “Synthesis, biological evaluation, and docking studies of N-substituted acetamidines as selective inhibitors of inducible nitric oxide synthase” (J Med Chem, 2009)

What was measured:
Nitric oxide synthase 3 = target: T1, Nitric oxide synthase 3 (Homo sapiens, UniProt P29474); assay: Inhibition of eNOS in LPS treated human THP1 cell homogenate assessed as conversion of L-[2,3-3H]arginine to L-[2,3-3H]citrulline pre-incubated 1 hr before LPS challenge by whole cell assay; type: cell-based, THP-1
T1 sequence (P29474 whole entry): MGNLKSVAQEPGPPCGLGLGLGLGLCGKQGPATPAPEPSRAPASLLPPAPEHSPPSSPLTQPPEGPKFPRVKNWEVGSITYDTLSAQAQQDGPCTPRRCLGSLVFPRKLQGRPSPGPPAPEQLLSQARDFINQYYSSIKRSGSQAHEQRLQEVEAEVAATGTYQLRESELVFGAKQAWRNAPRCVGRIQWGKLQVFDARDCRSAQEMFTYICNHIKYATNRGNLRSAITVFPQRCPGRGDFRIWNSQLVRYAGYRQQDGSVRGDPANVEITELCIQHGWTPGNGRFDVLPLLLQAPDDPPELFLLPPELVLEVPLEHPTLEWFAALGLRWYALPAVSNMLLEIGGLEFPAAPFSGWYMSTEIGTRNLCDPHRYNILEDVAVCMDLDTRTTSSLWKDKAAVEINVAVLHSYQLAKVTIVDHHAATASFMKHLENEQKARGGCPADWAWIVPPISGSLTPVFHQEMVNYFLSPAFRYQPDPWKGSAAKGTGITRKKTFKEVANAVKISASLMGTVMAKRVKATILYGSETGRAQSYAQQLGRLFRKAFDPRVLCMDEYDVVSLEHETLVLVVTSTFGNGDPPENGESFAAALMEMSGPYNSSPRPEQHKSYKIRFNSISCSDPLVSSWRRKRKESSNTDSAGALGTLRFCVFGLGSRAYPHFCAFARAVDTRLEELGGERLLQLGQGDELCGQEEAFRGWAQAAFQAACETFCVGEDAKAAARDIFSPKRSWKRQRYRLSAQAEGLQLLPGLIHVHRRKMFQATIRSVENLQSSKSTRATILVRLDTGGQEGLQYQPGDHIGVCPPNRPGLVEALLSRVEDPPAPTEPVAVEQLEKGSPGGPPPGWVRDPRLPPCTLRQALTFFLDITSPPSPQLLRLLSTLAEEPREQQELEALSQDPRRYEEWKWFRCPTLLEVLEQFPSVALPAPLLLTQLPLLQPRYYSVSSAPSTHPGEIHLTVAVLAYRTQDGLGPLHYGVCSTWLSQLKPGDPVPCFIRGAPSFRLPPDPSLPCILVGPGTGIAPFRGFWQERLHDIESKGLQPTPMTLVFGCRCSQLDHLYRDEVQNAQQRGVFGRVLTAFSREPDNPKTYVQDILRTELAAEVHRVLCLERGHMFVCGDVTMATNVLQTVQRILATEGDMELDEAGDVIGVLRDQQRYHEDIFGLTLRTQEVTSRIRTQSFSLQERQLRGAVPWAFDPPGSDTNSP

[1] = target: Nitric oxide synthase, inducible (Homo sapiens, UniProt P35228); assay: Inhibition of iNOS in LPS treated human THP1 cell homogenate assessed as conversion of L-[2,3-3H]arginine to L-[2,3-3H]citrulline pre-incubated 1 hr before LPS challenge by whole cell assay; type: cell-based, THP-1
Nitric oxide synthase, inducible, sequence (P35228 whole entry): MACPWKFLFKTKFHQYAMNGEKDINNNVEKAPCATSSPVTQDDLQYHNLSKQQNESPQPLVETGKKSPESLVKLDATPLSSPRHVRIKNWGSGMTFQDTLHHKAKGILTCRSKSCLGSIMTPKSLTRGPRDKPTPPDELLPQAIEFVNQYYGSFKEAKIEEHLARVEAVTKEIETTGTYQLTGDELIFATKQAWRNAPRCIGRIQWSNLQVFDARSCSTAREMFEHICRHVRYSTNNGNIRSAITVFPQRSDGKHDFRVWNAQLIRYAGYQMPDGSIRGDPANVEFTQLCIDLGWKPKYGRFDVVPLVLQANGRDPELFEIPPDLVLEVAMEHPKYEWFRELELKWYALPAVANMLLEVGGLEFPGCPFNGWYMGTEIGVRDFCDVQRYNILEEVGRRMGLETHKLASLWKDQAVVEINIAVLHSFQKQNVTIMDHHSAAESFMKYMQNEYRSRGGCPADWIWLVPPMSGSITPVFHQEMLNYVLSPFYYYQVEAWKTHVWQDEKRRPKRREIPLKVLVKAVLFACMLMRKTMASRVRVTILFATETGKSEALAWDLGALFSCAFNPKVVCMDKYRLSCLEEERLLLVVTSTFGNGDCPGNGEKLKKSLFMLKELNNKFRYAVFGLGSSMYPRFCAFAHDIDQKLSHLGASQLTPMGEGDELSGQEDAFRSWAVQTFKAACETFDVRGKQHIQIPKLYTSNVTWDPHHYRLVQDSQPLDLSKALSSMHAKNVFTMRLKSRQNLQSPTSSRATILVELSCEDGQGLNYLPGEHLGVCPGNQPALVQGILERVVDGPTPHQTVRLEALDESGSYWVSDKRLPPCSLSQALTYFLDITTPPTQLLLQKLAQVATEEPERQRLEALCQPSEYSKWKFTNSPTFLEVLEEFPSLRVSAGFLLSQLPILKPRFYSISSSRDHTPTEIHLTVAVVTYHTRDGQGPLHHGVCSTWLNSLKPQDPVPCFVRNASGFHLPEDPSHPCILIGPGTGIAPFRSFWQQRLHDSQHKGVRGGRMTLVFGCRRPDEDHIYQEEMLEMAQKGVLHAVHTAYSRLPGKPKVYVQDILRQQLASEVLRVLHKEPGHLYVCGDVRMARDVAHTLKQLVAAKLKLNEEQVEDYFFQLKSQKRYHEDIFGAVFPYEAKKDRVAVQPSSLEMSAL

Homo sapiens = species on record: Homo sapiens; assay: Selectivity ratio of IC50 for human eNOS to IC50 for human iNOS

Row | SMILES | IC50 (Nitric oxide synthase 3) [µM] | IC50 [1] [µM] | Ratio IC50 (Homo sapiens)
1 | CC(=N)NCc1cccc(CNCc2ccncc2)c1 | 20 | 0.35 | 57
2 | CC(=N)NCc1ccccc1 | 350 | 0.2 | 1750
3 | CC(=N)N[C@@H](C)c1ccccc1 | 300 | 0.45 | 666

Further compounds by falling IC50 (Nitric oxide synthase 3), results first:

Row | IC50 (Nitric oxide synthase 3) [µM] | IC50 [1] [µM] | Ratio IC50 (Homo sapiens) | SMILES
4 | 300 | 0.5 | 600 | CC(=N)NCc1cccc(CNS(=O)(=O)c2ccc(C)cc2)c1
5 | 90 | 0.25 | 360 | CCOC(=O)N1CCC(NC(C)=N)CC1
6 | 80 | 0.25 | 320 | CCC(NC(C)=N)c1ccccc1 (racemic)
